Consider nine compounds from BindingDB's records for doi:10.1021/acs.jmedchem.6b01785 (Chinese Academy of Sciences, 2017).

The term IC50 denotes the midpoint of a concentration-inhibition curve.

A short description of assay [1]: Inhibition of DOT1L in human KOPN8 cells assessed as reduction in cell viability after 72 hrs by alamar blue assay. (Alamar Blue is a resazurin reagent that responds to reducing activity.)
The nature of assay [2]: Inhibition of DOT1L in human THP-1 cells assessed as reduction in cell viability after 72 hrs by alamar blue assay.
Assay [3] in a line: Inhibition of DOT1L in human MV4-11 cells assessed as reduction in cell viability after 72 hrs by alamar blue assay.

Structures are written as SMILES.

Take `Fc1cccc(-c2nn3c(Cn4nnc5ccccc54)nnc3s2)c1`: the IC50 in assay [1] is 28.1 µM; in assay [2] it was 55.8 µM; in assay [3] it was 21.9 µM.
For `Cc1ccc(-c2nn3c(Cn4cnc5ccccc54)nnc3s2)cc1C`, in assay [3], the IC50 stood at 64 µM.
Take `Brc1cccc(-c2nn3c(Cn4cnc5ccccc54)nnc3s2)c1`: the IC50 in assay [3] amounted to 26.8 µM.
As to `CC(C)(C)c1ccc(-c2nn3c(Cn4nnc5ccccc54)nnc3s2)cc1`, the IC50 in assay [3] was 13.1 µM.
Regarding `c1ccc2c(c1)nnn2Cc1nnc2sc(-c3ccc4c(c3)OCO4)nn12`, in assay [3], the IC50 is 6.75 µM.
As for `COc1cccc(-c2nn3c(Cn4nnc5ccccc54)nnc3s2)c1`, the IC50 in assay [3] was determined as 64.2 µM.
Same read-out and setting: the result for `Fc1ccc(-c2nn3c(Cn4nnc5ccccc54)nnc3s2)cc1` reads 8 µM; that for `c1ccc2c(c1)nnn2Cc1nnc2sc(-c3ccc4c(c3)OCCO4)nn12` [1-{[6-(2,3-dihydro-1,4-benzodioxin-6-yl)[1,2,4]triazolo[3,4-b][1,3,4]thiadiazol-3-yl]methyl}-1H-1,2,3-benzotriazole], 40.7 µM.
Regarding `c1ccc(Cc2nn3c(Cn4nnc5ccccc54)nnc3s2)cc1` [3-(1-benzotriazolylmethyl)-6-(phenylmethyl)-[1,2,4]triazolo[3,4-b][1,3,4]thiadiazole], the IC50 in assay [3] turned out to be 48.8 µM.
